Source: ChEMBL document CHEMBL4680222, “Sensitive fluorogenic substrates for sirtuin deacylase inhibitor discovery” (Eur J Med Chem, 2020)

What was measured:
[1] = target: T1, NAD-dependent protein deacylase sirtuin-5, mitochondrial (Homo sapiens, UniProt Q9NXA8); assay: Inhibition of human N-terminal His-tagged SIRT5 (34 to 302 residues) expressed in Escherichia coli using Ac-Tyr-Lys-Leu-Lys(Ac)-AMC as substrate preincubated for 10 mins followed by substrate addition and measured after 30 mins in presence of NAD+ by fluorescence assay
T1 sequence (Q9NXA8 whole entry, the tested form may be a part): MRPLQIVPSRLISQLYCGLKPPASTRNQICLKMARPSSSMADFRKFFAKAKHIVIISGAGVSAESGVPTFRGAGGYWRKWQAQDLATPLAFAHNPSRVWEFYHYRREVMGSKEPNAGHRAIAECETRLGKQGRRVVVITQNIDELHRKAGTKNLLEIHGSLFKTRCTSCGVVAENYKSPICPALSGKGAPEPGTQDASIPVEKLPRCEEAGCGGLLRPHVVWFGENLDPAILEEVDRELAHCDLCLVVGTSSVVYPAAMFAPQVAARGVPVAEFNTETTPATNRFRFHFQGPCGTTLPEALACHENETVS

[2] = target: T1, NAD-dependent protein deacylase sirtuin-5, mitochondrial; assay: Inhibition of human N-terminal His-tagged SIRT5 (34 to 302 residues) expressed in Escherichia coli using Ac-Leu-Gly-Ser-Lys(Su)-AMC as substrate preincubated for 10 mins followed by substrate addition and measured after 30 mins in presence of NAD+ by fluorescence assay
[3] = target: T1, NAD-dependent protein deacylase sirtuin-5, mitochondrial; assay: Inhibition of human N-terminal His-tagged SIRT5 (34 to 302 residues) expressed in Escherichia coli using Ac-His-Phe-Ser-Lys(Su)-AMC as substrate preincubated for 10 mins followed by substrate addition and measured after 30 mins in presence of NAD+ by fluorescence assay
[4] = target: T2, NAD-dependent protein deacetylase sirtuin-1 (Homo sapiens, UniProt Q96EB6); assay: Inhibition of human N-terminal His-tagged SIRT1 (183 to 664 residues) expressed in Escherichia coli using Ac-Arg-Leu-Ile-Lys(Ac)-AMC as substrate preincubated for 10 mins followed by substrate addition and measured after 30 mins in presence of NAD+ by fluorescence assay
T2 sequence (Q96EB6 whole entry): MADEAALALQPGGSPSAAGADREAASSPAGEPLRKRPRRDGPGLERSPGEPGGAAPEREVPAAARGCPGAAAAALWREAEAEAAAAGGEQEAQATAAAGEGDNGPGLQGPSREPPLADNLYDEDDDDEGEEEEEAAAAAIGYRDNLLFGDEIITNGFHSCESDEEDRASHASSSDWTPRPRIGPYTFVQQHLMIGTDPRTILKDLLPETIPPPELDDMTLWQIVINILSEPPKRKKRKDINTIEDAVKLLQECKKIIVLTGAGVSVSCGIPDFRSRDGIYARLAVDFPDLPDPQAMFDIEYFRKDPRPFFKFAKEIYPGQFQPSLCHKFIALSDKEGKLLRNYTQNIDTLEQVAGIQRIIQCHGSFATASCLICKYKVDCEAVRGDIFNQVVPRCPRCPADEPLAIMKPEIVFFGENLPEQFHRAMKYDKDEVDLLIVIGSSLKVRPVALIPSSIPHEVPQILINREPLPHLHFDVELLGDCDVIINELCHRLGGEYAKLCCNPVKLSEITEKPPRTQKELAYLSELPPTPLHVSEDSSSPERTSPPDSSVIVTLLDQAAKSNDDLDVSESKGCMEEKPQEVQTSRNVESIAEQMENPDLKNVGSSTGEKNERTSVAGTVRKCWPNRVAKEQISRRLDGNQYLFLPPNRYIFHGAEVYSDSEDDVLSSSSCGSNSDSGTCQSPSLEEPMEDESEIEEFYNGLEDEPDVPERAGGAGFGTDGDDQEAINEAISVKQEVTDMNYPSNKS

[5] = target: T2, NAD-dependent protein deacetylase sirtuin-1; assay: Inhibition of human N-terminal His-tagged SIRT1 (183 to 664 residues) expressed in Escherichia coli using Ac-Tyr-Lys-Leu-Lys(Ac)-AMC as substrate preincubated for 10 mins followed by substrate addition and measured after 30 mins in presence of NAD+ by fluorescence assay
[6] = target: T3, NAD-dependent protein deacetylase sirtuin-2 (Homo sapiens, UniProt Q8IXJ6); assay: Inhibition of human N-terminal His-tagged SIRT2 (56 to 356 residues) expressed in Escherichia coli using Ac-Arg-Leu-Ile-Lys(Ac)-AMC as substrate preincubated for 10 mins followed by substrate addition and measured after 30 mins in presence of NAD+ by fluorescence assay
T3 sequence (Q8IXJ6 whole entry): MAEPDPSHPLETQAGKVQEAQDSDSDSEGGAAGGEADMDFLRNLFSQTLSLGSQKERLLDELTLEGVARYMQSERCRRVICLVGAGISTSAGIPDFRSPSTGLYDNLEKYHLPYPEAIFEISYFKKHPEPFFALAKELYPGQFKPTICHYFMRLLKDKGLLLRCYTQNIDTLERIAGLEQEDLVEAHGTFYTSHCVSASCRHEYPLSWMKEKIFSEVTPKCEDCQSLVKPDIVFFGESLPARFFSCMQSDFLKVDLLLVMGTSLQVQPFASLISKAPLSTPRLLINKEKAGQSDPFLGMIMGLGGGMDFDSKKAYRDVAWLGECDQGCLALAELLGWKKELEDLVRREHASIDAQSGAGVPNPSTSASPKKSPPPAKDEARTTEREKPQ

[7] = target: T3, NAD-dependent protein deacetylase sirtuin-2; assay: Inhibition of human N-terminal His-tagged SIRT2 (56 to 356 residues) expressed in Escherichia coli using Ac-Ser-Ser-Ile-Lys(De)-AMC as substrate preincubated for 10 mins followed by substrate addition and measured after 30 mins in presence of NAD+ by fluorescence assay

CC(C)c1ccccc1Cc1cc(C(=O)Nc2ccc(S(=O)(=O)c3ccccc3C(C)(C)C)cc2)c(O)c(O)c1O
IC50 [1]: 21.9 µM
IC50 [2]: 6.1 µM
IC50 [3]: 6.6 µM

c1cncc(-c2c[nH]nn2)c1
IC50 [4]: 261 µM
IC50 [5]: 146 µM

NC(=O)C1CCCc2c1[nH]c1ccc(Cl)cc21 (centres undefined)
IC50 [1]: > 200 µM
IC50 [2]: > 200 µM

Cc1ccc(C(=O)Nc2ccc(S(=O)(=O)O)c3cc(S(=O)(=O)O)cc(S(=O)(=O)O)c23)cc1NC(=O)c1cccc(NC(=O)Nc2cccc(C(=O)Nc3cc(C(=O)Nc4ccc(S(=O)(=O)O)c5cc(S(=O)(=O)O)cc(S(=O)(=O)O)c45)ccc3C)c2)c1 [SURAMIN]
IC50 [6]: 2.2 µM
IC50 [7]: 23.3 µM
